Measured values from ChEMBL document CHEMBL4196089, “Design, synthesis, biological evaluation and in vivo testing of dual phosphodiesterase 5 (PDE5) and histone deacetylase 6 (HDAC6)-selective inhibitors for the treatment of Alzheimer's disease” (Eur J Med Chem, 2018).

Key:
Histone deacetylase 1 = Histone deacetylase 1 (Homo sapiens, UniProt Q13547); assay: Inhibition of full length human recombinant C-terminal FLAG/His-tagged HDAC1 expressed in baculovirus infected sf9 cells using fluorogenic HDAC substrate 3 after 30 mins by fluorescence assay
Chain of Histone deacetylase 1 (Q13547 whole entry): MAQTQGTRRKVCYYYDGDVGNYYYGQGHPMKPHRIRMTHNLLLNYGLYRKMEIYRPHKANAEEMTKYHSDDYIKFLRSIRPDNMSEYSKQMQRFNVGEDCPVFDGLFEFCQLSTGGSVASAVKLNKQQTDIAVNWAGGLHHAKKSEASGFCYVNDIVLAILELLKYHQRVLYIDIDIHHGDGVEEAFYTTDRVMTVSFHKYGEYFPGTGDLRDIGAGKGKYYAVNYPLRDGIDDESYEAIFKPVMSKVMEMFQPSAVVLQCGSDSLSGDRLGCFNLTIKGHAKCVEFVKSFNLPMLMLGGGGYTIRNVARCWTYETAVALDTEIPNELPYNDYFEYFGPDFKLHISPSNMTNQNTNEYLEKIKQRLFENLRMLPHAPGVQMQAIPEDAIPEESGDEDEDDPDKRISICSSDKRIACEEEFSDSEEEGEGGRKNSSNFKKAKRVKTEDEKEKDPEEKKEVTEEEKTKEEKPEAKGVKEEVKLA

Histone deacetylase 2 = Histone deacetylase 2 (Homo sapiens, UniProt Q92769); assay: Inhibition of full length human recombinant C-terminal His-tagged HDAC2 expressed in baculovirus infected sf9 cells using fluorogenic HDAC substrate 3 after 30 mins by fluorescence assay
Chain of Histone deacetylase 2 (Q92769 whole entry, the tested form may be a part): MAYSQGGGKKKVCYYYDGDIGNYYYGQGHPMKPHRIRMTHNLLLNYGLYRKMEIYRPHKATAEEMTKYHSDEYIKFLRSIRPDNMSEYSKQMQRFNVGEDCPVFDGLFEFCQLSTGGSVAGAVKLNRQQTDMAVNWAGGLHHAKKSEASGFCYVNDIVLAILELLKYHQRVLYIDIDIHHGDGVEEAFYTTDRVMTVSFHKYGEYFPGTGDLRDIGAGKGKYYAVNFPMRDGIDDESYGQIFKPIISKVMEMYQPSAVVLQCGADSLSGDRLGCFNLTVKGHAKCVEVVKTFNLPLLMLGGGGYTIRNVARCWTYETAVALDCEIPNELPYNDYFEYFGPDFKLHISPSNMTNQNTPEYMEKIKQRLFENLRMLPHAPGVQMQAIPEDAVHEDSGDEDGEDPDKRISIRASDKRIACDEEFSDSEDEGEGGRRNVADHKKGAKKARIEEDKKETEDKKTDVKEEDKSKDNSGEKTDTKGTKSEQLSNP

[1] = molecular target: Histone deacetylase 3/Nuclear receptor corepressor 2 (HDAC3/NCoR2) (Homo sapiens, UniProt O15379); assay: Inhibition of full length human recombinant C-terminal His-tagged HDAC3/N-terminal GST-tagged NCOR2 (95 to 489 residues) expressed in baculovirus infected sf9 cells using fluorogenic HDAC substrate 3 after 30 mins by fluorescence assay
[2] = molecular target: T1, Protein deacetylase HDAC6 (Homo sapiens, UniProt Q9UBN7); assay: Inhibition of full length human recombinant N-terminal GST-tagged HDAC6 expressed in baculovirus infected sf9 cells using fluorogenic HDAC substrate 3 after 30 mins by fluorescence assay
T1 sequence (Q9UBN7 whole entry): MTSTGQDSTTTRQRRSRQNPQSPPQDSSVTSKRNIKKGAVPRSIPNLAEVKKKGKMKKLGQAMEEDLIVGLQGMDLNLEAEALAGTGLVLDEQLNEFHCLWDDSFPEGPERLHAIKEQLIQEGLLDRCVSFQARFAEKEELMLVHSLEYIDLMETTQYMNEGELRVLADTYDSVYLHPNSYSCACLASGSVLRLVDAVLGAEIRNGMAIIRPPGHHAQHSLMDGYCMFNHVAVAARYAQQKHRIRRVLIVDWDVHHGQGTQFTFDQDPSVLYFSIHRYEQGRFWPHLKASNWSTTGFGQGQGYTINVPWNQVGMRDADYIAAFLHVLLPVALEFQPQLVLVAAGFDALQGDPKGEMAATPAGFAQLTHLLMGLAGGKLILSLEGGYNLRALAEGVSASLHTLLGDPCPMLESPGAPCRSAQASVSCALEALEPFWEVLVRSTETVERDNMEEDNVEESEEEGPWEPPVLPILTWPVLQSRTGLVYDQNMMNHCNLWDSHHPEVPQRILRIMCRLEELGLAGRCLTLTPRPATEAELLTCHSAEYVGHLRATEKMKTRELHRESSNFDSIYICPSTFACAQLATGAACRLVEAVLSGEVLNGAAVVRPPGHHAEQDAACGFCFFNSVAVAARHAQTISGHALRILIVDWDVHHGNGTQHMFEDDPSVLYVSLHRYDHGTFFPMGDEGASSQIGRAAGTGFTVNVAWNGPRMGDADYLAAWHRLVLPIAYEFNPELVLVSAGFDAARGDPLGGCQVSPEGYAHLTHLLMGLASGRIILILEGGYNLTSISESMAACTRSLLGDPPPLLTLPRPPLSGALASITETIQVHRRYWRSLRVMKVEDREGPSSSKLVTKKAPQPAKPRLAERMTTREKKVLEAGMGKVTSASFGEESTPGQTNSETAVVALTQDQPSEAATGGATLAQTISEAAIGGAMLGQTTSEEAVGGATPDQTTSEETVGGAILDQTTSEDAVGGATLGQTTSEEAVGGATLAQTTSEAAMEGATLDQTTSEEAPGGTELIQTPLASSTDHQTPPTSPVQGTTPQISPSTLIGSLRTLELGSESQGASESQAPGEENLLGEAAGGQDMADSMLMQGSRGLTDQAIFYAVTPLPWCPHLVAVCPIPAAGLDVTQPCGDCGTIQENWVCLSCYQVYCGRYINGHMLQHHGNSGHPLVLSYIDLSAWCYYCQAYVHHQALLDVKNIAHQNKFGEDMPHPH

[3] = molecular target: cGMP-specific 3',5'-cyclic phosphodiesterase (Homo sapiens, UniProt O76074); assay: Inhibition of full length human recombinant N-terminal GST-tagged PDE5A1 expressed in baculovirus infected sf9 cells using cGMP as substrate after 30 mins by fluorescence assay
[4] = Cytotoxicity against human THLE2 cells after 72 hrs by vialight cell proliferation assay; format: cell-based, THLE-2; settings: read-out: LC50
[5] = Effective permeability of the compound at 50 uM after 18 hrs by UV spectroscopy based PAMPA; format: ADME; settings: read-out: Peff
[6] = Inhibition of class-1 HDAC in human SH-SY5Y cells assessed as induction of AcH3K9 level at 160 nM after 2 hrs by AlphaLISA assay; format: cell-based; settings: 0.16 µM
[7] = molecular target: Protein deacetylase HDAC6 (Mus musculus) (UniProt Q9Z2V5); assay: Inhibition of HDAC6 in Tg2576 mouse primary neurons assessed as reduction in phosphorylated tau protein level at 100 nM treated for 2 days measured at 24 hrs post last dose by Western blot analysis relative to control
CYP2C9 = CYP2C9 (Homo sapiens, UniProt P11712); assay: Inhibition of CYP2C9 in human liver microsomes at 10 uM after 10 mins in presence of NADPH by LC-MS/MS analysis relative to control; format: ADME
Chain of CYP2C9 (P11712 whole entry): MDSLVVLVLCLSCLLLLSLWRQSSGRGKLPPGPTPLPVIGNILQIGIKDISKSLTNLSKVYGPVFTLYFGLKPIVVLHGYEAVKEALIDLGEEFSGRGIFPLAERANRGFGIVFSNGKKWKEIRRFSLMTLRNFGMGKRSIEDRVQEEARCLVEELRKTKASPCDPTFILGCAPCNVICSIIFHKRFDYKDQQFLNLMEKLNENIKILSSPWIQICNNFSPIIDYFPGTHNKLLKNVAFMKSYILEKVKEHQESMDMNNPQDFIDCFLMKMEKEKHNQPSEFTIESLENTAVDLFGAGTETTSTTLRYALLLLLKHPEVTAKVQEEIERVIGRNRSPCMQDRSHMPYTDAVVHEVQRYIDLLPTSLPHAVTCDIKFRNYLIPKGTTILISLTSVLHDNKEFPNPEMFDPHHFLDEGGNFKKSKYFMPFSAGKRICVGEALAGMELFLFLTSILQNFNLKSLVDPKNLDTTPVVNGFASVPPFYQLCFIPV

CYP2D6 = CYP2D6 (Homo sapiens, UniProt P10635); assay: Inhibition of CYP2D6 in human liver microsomes at 10 uM after 10 mins in presence of NADPH by LC-MS/MS analysis relative to control; format: ADME
[8] = Half life in human liver microsomes at 1 uM preincubated for 10 mins followed by NADPH addition measured up to 60 mins by LC-MS/MS analysis; format: ADME, microsome
[9] = Half life in mouse liver microsomes at 1 uM preincubated for 10 mins followed by NADPH addition measured up to 60 mins by LC-MS/MS analysis; format: ADME, microsome
[10] = molecular target: High affinity cGMP-specific 3',5'-cyclic phosphodiesterase 9A (Homo sapiens, UniProt O76083); assay: Inhibition of full length human recombinant N-terminal GST-tagged PDE9A2 expressed in baculovirus infected sf9 cells using cGMP as substrate after 30 mins by fluorescence assay
Chain of High affinity cGMP-specific 3',5'-cyclic phosphodiesterase 9A (O76083 whole entry): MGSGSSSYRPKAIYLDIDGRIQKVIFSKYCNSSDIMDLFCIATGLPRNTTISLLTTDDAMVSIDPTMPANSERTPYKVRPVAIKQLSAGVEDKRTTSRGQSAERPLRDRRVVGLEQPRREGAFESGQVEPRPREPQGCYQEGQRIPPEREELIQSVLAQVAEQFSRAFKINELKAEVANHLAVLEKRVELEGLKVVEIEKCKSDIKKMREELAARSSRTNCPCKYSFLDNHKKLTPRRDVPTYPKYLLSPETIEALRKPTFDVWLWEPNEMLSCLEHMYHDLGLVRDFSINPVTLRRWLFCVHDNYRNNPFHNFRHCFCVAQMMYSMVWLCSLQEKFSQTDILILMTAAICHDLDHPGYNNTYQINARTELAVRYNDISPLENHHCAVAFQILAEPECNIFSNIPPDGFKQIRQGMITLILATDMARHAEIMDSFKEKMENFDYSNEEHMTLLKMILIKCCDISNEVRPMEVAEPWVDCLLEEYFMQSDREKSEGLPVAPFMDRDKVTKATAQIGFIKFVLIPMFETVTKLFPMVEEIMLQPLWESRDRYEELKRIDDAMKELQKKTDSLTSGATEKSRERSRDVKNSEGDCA

[11] = molecular target: cGMP-inhibited 3',5'-cyclic phosphodiesterase 3A (Homo sapiens, UniProt Q14432); assay: Inhibition of PDE3A (unknown origin) using FAM-cGMP as substrate by fluorescence assay
Chain of cGMP-inhibited 3',5'-cyclic phosphodiesterase 3A (Q14432 whole entry): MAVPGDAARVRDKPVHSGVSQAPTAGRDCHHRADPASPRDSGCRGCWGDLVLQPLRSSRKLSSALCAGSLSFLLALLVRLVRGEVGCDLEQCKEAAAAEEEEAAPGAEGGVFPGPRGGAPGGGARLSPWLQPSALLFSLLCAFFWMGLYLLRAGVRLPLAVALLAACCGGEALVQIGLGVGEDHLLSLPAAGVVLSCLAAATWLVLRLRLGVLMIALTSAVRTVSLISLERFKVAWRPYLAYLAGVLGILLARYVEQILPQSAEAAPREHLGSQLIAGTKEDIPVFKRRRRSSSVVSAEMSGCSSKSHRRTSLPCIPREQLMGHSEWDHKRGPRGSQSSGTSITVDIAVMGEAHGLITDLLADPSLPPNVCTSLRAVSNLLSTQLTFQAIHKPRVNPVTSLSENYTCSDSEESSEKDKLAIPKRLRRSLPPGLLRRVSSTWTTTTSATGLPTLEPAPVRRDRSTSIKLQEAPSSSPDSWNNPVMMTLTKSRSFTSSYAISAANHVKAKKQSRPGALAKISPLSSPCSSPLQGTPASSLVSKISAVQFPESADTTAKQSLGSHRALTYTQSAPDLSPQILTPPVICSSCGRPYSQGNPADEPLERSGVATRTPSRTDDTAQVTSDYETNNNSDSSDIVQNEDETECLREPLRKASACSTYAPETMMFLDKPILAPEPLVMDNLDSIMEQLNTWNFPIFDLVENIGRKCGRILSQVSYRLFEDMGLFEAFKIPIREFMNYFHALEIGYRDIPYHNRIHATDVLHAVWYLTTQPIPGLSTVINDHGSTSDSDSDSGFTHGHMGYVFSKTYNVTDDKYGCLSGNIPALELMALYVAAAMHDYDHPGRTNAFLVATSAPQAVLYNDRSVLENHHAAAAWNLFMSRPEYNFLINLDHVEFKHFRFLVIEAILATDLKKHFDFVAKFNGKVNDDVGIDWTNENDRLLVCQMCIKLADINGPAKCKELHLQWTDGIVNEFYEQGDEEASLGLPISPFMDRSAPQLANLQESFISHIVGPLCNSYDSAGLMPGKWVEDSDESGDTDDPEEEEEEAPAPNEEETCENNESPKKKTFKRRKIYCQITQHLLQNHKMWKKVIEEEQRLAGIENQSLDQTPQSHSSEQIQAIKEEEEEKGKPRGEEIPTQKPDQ

Histone deacetylase 8 = Histone deacetylase 8 (Homo sapiens, UniProt Q9BY41); assay: Inhibition of human HDAC8
Chain of Histone deacetylase 8 (Q9BY41 whole entry): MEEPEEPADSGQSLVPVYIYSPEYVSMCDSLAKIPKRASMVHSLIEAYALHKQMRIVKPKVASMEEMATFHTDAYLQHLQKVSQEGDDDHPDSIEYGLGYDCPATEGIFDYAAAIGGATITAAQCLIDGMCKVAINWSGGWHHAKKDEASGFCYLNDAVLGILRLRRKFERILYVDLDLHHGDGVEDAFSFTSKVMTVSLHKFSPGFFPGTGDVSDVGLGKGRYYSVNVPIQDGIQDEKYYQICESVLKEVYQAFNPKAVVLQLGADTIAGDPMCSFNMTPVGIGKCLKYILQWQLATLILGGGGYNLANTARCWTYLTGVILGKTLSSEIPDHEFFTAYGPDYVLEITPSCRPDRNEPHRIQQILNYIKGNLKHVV

Histone deacetylase 5 = Histone deacetylase 5 (Homo sapiens, UniProt Q9UQL6); assay: Inhibition of human HDAC5
Histone deacetylase 4 = Histone deacetylase 4 (Homo sapiens, UniProt P56524); assay: Inhibition of human HDAC4
Chain of Histone deacetylase 4 (P56524 whole entry): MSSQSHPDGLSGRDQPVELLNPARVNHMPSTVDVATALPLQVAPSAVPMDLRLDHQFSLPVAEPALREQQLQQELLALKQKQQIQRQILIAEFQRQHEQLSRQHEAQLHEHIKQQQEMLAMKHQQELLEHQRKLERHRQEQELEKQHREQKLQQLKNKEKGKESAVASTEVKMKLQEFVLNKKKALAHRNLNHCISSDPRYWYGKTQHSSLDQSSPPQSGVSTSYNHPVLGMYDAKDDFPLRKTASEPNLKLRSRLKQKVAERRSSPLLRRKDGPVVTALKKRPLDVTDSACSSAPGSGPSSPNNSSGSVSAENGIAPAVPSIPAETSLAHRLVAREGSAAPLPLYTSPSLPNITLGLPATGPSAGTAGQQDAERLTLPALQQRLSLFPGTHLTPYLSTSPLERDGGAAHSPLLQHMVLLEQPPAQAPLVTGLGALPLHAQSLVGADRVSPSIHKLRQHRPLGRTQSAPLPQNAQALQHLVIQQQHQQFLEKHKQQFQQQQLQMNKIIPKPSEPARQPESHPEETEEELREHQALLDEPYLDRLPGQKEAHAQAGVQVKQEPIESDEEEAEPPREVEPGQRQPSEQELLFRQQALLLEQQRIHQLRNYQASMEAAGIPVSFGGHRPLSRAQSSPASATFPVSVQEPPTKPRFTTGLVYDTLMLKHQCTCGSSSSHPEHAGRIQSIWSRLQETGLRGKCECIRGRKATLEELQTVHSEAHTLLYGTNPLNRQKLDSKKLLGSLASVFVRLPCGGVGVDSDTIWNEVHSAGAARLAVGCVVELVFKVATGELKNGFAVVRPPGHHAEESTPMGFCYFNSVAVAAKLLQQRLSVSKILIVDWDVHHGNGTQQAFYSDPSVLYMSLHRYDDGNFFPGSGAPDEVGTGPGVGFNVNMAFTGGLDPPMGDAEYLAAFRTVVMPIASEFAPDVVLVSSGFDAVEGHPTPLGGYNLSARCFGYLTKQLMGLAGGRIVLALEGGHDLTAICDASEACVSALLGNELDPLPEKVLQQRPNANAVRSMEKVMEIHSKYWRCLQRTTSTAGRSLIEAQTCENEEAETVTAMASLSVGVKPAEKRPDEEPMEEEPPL

Mus musculus [12] = assay: In vivo inhibition of PDE5 in mouse assessed as increase in pCREB-Ser133 level in hippocampus at 40 mg/kg, ip measured after 1 hr by Western blot analysis; format: functional; set-up: scale not given: the % may be the effect or the level left
Mus musculus [13] = assay: Cognitive enhancing effect in Tg2576 mouse model of Alzheimer's disease assessed as long term associative memory improvement by measuring freezing after electric shock at 40 mg/kg, ip for 2 weeks measured at 24 hrs post electric shock (reference value: 54%); format: functional
cells [14] = settings: Homo sapiens, SH-SY5Y, 2 h, read-out: FC
cells [15] = settings: Homo sapiens, SH-SY5Y, 2 h, read-out: FC; remark: listed apart in the source

`CCCc1nn(C)c2c(=O)[nH]c(-c3cc(Cc4ccc(C(=O)NO)s4)ccc3OCC)nc12` showed an IC50 (Histone deacetylase 1) of 0.345 µM, an IC50 (Histone deacetylase 2) of 3.72 µM and an IC50 [1] of 2.09 µM. It also gave an IC50 [2] of 0.015 µM, an IC50 [3] of 0.011 µM and a CC50 at 72 h [4] of 6.81 µM. The Papp at 18 h, 50 µM [5] was 2.91 ×10⁻⁶ cm/s, the “inhibition (INH)” value [6] was “Active” and the inhibition [7] was 30%. It also gave an inhibition at 10 min, 10 µM (CYP2C9) of less than 50%, an inhibition at 10 min, 10 µM (CYP2D6) of less than 50% and a half-life at 1 µM [8] of 32.7 min. It also gave a half-life at 1 µM [9] of 5.2 min, an IC50 [10] greater than 10 µM and an IC50 [11] of 3.2 µM. The IC50 (Histone deacetylase 8) was greater than 10 µM, the IC50 (Histone deacetylase 5) was greater than 10 µM and the IC50 (Histone deacetylase 4) was greater than 10 µM. The Activity (Mus musculus [12]) was 48%, the Activity (Mus musculus [13]) was 68% and the fold induction at 0.5 µM (cells [14]) was 8.2. The fold induction at 1 µM (cells [15]) was 12.1.
